From patent US20230295166A1, “ATR INHIBITORS AND USES THEREOF” (ANTENGENE DISCOVERY LIMITED, priority 2020, published 2023) come the findings set out here.

Structures are written as SMILES.

What is called IC50 is the concentration at which inhibition is half-maximal.

One assay has as its target ATR kinase (Homo sapiens (Human), UniProt Q13535). Nature of the assay: ATR inhibition assay (mobility shift assay, phosphorylation of FAM-RAD17). Conditions: ATR kinase (Eurofins), substrate FAM-RAD17, mobility shift. The format is biochemical. Here is the method:
Assay 1: ATR Inhibition Assay
Detection of ATR kinase activity utilized the Mobility shift assay to measure the phosphorylation of the substrate protein FAM-RAD17 (GL, Cat. No. 514318, Lot. No. P19042-MJ524315). The assay was developed and conducted at Chempartner. All the test compounds were dissolved in 100% DMSO at concentration of 20 mM, then prepare compounds and conducted the assay as follows: • 1) Transfer 80 μl 20 mM compound to 40 μl of 100% DMSO in a 96-well plate. • 2) Serially dilute the compound by transferring 20 μl to 60 μl of 100% DMSO in the next well and so forth for a total of 10 concentrations. • 3) Add 100 μl of 100% DMSO to two empty wells for no compound control and no enzyme control in the same 96-well plate. Mark the plate as source plate. • 4) Transfer 40 μl of compound from source plate to a new 384-well plate as the intermediate plate. • 5) Transfer 60 nl compounds to assay plate by Echo. • 6) Add ATR kinase (Eurofins, Cat. No. 14-953, Lot. No. D14 JP007N) into Kinase base buffer (50 mM HEPES, pH 7.5; 0.0015% Brij-35; 0.01% Triton) to prepare 2× enzyme solution, then add 10 μl of 2× enzyme solution to each well of the 384-well assay plate, incubate at room temperature for 10 min. • 7) Add FAM-RAD17 and ATP (Sigma, Cat. No. A7699-1G, CAS No. 987-65-5) in the kinase base buffer to prepare 2×peptide solution, then add 10 μl to the assay plate. • 8) Incubate at 28° C. for specified period of time. Add 40 μl of stop buffer (100 mM HEPES, pH 7.5; 0.015% Brij-35; 0.2% Coating Reagent #3; 50 mM EDTA) to stop reaction. • 9) Collect data on Caliper. Convert conversion values to inhibition values.
Percent inhibition=(max−conversion)/(max−min)*100 wherein “max” stands for DMSO control; “min” stands for low control.
Fit the data in XLFit excel add-in version 5.4.0.8 to obtain IC50 values. Equation used is:
Y=Bottom+(Top−Bottom)/(1+(IC50/X)^HillSlope) wherein X means concentration in a format not transformed to logarithms.

For another assay, the system named is LoVo (CCL-229) cells. Put plainly: Tumor cell anti-proliferation assay (CTG assay). The format is cell-based. Conditions: LoVo human colorectal cancer cells, 96 h, CellTiter-Glo. The protocol:
Assay 2: Tumor Cell Anti-proliferation Assay (CTG Assay)
Human colorectal cancer cells HT-29 (HTB-38) and LoVo (CCL-229) were selected for the CTG assay, the two cell lines were originally obtained from the American Type Culture Collection (ATCC). FBS and appropriate additives were added into base medium to prepare complete medium, then the cell layer was briefly rinsed with 0.25% (w/v) Trypsin-0.038% (w/v) EDTA solution to remove all traces of serum that contains trypsin inhibitor. After that, appropriate volume of Trypsin-EDTA solution was added to flask and cells under an inverted microscope were observed until cell layer was dispersed. At last, appropriate volume of complete growth medium was added and cells were aspirated by gently pipetting. Numbers were collected and counted with Vi-cell XR and cell density was adjusted, cells were seeded into 96-well opaque-walled clear bottom tissue-culture treated plates in the CO2 incubator for 20-24 hours. All the test compounds were at 10 mM in DMSO. Compounds were then added to the cell media in 3-fold serial dilutions, the final DMSO concentration was 0.5%. Plates were incubated for 96 h at 5% CO2, 37° C. Before the measurement, the appropriate volume of CellTiter-Glo Buffer was transferred into the amber bottle containing CellTiter-Glo substrate to reconstitute the lyophilized enzyme/substrate mixture, mixed gently, thereby forming the CellTiter-Glo Reagent (Promega Cat. No. G7573). The plate and its contents were equilibrated to room temperature for approximately 30 minutes, then 100 μL of CellTiter-Glo Reagent was added to the assay plate, the contents were mixed for 2 minutes on an orbital shaker to induce cell lysis, incubated at room temperature for 10 minutes to stabilize luminescent signal. At last the clear bottom was pasted with white back seal and luminescence was recorded with Enspire. IC50 and GI50 values were calculated with XLFit curve fitting software using 4 Parameter Logistic Model Y=Bottom+(Top−Bottom)/(1+(IC50/X)^HillSlope).
(In ATP-based viability assays light output follows the ATP content of the culture.)

Sequence of ATR kinase (Q13535 whole entry): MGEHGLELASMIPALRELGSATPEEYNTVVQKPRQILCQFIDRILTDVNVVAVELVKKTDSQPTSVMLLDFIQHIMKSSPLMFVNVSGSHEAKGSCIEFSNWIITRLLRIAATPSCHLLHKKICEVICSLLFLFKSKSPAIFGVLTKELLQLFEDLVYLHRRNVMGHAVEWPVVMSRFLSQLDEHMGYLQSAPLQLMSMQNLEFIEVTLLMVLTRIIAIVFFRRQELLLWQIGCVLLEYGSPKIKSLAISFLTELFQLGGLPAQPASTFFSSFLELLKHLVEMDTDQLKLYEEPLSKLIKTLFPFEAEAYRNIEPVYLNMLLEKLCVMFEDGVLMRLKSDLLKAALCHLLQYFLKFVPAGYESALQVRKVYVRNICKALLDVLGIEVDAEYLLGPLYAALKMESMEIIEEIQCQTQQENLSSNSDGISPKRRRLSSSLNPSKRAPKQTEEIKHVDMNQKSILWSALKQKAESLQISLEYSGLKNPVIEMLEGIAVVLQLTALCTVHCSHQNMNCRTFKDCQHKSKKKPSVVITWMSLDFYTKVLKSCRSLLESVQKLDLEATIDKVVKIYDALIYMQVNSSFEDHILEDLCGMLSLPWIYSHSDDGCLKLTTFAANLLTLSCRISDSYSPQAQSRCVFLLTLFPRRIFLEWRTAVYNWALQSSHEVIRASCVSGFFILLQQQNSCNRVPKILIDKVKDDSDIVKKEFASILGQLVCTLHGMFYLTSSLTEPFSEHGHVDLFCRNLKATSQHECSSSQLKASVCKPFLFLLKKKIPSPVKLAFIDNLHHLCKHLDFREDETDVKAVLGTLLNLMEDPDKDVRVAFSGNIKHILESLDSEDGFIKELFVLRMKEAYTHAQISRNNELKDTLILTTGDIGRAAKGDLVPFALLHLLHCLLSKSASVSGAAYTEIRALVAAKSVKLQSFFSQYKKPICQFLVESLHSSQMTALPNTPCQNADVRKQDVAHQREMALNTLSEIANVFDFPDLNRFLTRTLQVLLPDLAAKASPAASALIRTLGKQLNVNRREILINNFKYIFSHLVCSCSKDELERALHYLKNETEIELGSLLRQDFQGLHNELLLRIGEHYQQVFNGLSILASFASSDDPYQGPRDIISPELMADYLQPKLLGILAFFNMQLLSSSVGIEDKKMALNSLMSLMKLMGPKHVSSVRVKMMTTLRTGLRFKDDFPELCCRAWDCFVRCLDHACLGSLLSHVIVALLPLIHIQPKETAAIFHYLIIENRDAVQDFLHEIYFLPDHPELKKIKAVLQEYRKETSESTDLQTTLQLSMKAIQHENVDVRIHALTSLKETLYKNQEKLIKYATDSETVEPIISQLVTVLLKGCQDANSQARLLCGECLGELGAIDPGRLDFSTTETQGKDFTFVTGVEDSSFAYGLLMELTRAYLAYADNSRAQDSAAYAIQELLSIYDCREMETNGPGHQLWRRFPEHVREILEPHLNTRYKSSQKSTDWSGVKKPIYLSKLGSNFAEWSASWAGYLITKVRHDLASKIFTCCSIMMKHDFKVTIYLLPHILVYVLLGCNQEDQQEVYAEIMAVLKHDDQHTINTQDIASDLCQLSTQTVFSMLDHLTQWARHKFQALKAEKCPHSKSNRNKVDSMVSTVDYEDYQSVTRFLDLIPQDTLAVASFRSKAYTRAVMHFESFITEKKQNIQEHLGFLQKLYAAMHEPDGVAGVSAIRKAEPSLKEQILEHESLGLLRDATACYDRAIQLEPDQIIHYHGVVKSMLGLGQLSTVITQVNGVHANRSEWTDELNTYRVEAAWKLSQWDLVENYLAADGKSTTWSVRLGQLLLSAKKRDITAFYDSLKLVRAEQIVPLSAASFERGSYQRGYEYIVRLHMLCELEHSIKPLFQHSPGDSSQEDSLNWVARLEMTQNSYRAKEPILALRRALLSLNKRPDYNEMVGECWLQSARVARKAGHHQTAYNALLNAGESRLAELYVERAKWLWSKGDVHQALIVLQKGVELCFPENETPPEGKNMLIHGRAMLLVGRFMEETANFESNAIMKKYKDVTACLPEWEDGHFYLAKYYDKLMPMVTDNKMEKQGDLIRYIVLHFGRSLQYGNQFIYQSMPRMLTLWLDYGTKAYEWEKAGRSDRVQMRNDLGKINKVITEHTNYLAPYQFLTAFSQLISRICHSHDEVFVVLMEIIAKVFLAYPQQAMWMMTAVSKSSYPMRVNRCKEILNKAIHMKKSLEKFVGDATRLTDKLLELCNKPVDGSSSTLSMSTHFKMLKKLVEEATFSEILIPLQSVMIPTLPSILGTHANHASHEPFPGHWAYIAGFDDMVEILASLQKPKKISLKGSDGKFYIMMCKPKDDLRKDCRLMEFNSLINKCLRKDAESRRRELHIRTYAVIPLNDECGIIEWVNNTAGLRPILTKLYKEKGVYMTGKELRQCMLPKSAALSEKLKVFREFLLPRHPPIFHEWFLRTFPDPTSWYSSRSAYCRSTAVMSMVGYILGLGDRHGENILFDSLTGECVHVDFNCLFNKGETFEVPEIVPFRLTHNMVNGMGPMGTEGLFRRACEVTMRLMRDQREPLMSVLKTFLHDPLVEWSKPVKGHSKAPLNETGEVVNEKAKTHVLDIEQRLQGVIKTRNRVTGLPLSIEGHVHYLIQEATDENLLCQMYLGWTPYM
Sequence of ATR kinase (Q8WXE1 whole entry partner): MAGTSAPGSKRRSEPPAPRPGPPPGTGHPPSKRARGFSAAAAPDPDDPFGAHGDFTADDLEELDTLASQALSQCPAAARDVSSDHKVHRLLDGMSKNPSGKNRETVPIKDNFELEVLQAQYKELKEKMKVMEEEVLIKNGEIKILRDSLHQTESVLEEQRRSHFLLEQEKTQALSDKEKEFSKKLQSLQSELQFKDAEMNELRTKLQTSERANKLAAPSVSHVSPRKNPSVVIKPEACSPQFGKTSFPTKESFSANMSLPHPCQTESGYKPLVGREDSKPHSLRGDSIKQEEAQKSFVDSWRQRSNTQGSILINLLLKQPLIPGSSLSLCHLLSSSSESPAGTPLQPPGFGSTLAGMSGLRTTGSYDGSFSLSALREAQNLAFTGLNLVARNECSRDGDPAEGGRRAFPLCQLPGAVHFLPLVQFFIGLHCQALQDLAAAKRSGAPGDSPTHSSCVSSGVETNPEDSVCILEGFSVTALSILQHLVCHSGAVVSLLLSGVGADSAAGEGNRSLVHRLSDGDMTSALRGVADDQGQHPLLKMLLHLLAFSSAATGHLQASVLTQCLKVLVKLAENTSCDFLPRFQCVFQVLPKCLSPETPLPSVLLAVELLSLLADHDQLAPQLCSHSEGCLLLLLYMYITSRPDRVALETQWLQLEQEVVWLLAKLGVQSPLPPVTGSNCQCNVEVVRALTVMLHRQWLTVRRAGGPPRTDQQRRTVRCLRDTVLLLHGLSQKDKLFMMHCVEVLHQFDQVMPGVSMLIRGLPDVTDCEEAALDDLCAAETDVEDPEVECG

Take `C[C@@H]1COCCN1c1cc(-c2ccnn2C)n2ncc(-c3cccnc3)c2n1` [Example 3, (R)-3-methyl-4-(7-(1-methyl-1H-pyrazol-5-yl)-3-(pyridin-3-yl)pyrazolo[1,5-a]pyrimidin-5-yl)morpholine]: the IC50 at ATR kinase is 0.1 to 0.5 µM.

On to `C[C@@H]1COCCN1c1cc(-c2ccn[nH]2)n2ncc(-c3ccn[nH]3)c2n1` [Example 10, (R)-4-(3,7-di(1H-pyrazol-5-yl)pyrazolo[1,5-a]pyrimidin-5-yl)-3-methylmorpholine], for which, at ATR kinase, the IC50 was below 0.1 µM.

As for `C[C@@H]1COCCN1c1cc(C2(S(C)(=O)=O)CC2)n2ncc(-c3ccc[nH]3)c2n1` [Example 8, (R)-3-methyl-4-(7-(1-(methylsulfonyl)cyclopropyl)-3-(1H-pyrrol-2-yl)pyrazolo[1,5-a]pyrimidin-5-yl)morpholine], the IC50 at ATR kinase is below 0.1 µM.

For `C[C@@H]1COCCN1c1cc(C2([S@](C)(=N)=O)CC2)n2ncc(-c3ccn[nH]3)c2n1` [Example 7a, (R)-imino(methyl)(1-(5-((R)-3-methylmorpholino)-3-(1H-pyrazol-5-yl)pyrazolo[1,5-a]pyrimidin-7-yl)cyclopropyl)-λ6-sulfanone], on ATR kinase, the IC50 is below 0.1 µM.

For `Cc1cc(-c2nc(C)c3c(-c4c(C)nnn4C)cc(N4CCOC[C@H]4C)nn23)[nH]n1` [Example 46, (3R)-4-[4-(dimethyl-1H-1,2,3-triazol-5-yl)-5-methyl-7-(3-methyl-1H-pyrazol-5-yl)imidazo[1,5-b]pyridazin-2-yl]-3-methylmorpholine], the IC50 in the assay on LoVo (CCL-229) cells was found to be 0.0512 µM.

Consider `Cc1cc(-c2nsc3c(-c4c(C)noc4C)cc(N4CCOC[C@H]4C)nc23)[nH]n1` [Example 73, (R)-4-(7-(3,5-dimethylisoxazol-4-yl)-3-(3-methyl-1H-pyrazol-5-yl)isothiazolo[4,5-b]pyridin-5-yl)-3-methylmorpholine], for which, in the assay on LoVo (CCL-229) cells, the IC50 stood at 0.041 µM.

`Cc1cc(-c2nc(C)c3c(-c4ccnn4C)cc(N4CC5CCC(C4)O5)nn23)[nH]n1` [Example 66, 3-[5-methyl-4-(1-methyl-1H-pyrazol-5-yl)-7-(3-methyl-1H-pyrazol-5-yl)imidazo[1,5-b]pyridazin-2-yl]-8-oxa-3-azabicyclo[3.2.1]octane] came in with an IC50 with LoVo (CCL-229) cells of 0.069 µM.

The molecule `C[C@@H]1COCCN1c1cc(C2(C#N)CCCC2)c2cnc(-c3ccn[nH]3)n2n1` [Example 59, 1-{2-[(3R)-3-methylmorpholin-4-yl]-7-(1H-pyrazol-5-yl)imidazo[1,5-b]pyridazin-4-yl}cyclopentane-1-carbonitrile] had an IC50 in the assay on LoVo (CCL-229) cells of 0.0281 µM.

For `Cc1cnn(C)c1-c1cc(N2CCOC[C@H]2C)nc2c(-c3ccn[nH]3)nsc12` [Example 70, (R)-4-(7-(1,4-dimethyl-1H-pyrazol-5-yl)-3-(1H-pyrazol-5-yl)isothiazolo[4,5-b]pyridin-5-yl)-3-methylmorpholine], in the assay with LoVo (CCL-229) cells, it took 0.018 µM to reach half-maximal inhibition (IC50).

In the assay with LoVo (CCL-229) cells, `C[C@@H]1COCCN1c1cc(C(C)(C)C#N)c2cnc(-c3ccn[nH]3)n2n1` [Example 40, (R)-2-methyl-2-(2-(3-methylmorpholino)-7-(1H-pyrazol-5-yl)imidazo[1,5-b]pyridazin-4-yl)propanenitrile] gave an IC50 of 0.0238 µM.

As to `Cc1cc(-c2nsc3c(C4(CO)CC4)cc(N4CCOC[C@H]4C)nc23)[nH]n1` [Example 98, (R)-(1-(3-(3-methyl-1H-pyrazol-5-yl)-5-(3-methylmorpholino)isothiazolo[4,5-b]pyridin-7-yl)cyclopropyl)methanol], the IC50 with LoVo (CCL-229) cells came to 0.014 µM.

As to `Cn1nccc1-c1cc(N2CC3CCC(C2)O3)nn2c(-c3ccn[nH]3)ncc12` [Example 78, 3-[4-(1-methyl-1H-pyrazol-5-yl)-7-(1H-pyrazol-5-yl)imidazo[1,5-b]pyridazin-2-yl]-8-oxa-3-azabicyclo[3.2.1]octane], inhibition in the assay with LoVo (CCL-229) cells was half-maximal at 0.152 µM (IC50).

`Cc1cc(-c2nsc3c(-c4ccccc4S(C)(=O)=O)cc(N4CCOC[C@H]4C)nc23)[nH]n1` [Example 95, (3R)-4-[7-(2-methanesulfonylphenyl)-3-(3-methyl-1H-pyrazol-5-yl)-[1,2]thiazolo[4,5-b]pyridin-5-yl]-3-methylmorpholine]: the IC50 with LoVo (CCL-229) cells worked out at 0.036 µM.

`Cc1cc(-c2nsc3c(C4(C(N)=O)CCCCC4)cc(N4CCOC[C@H]4C)nc23)[nH]n1` [Example 88, (R)-1-(3-(3-methyl-1H-pyrazol-5-yl)-5-(3-methylmorpholino)isothiazolo[4,5-b]pyridin-7-yl)cyclohexane-1-carboxamide] had an IC50 in the assay on LoVo (CCL-229) cells of 0.001 µM.

Turning to `C[C@@H]1COCCN1c1cc(C2(O)CCCCC2)c2snc(-c3ccn[nH]3)c2n1` [Example 91, (R)-1-(5-(3-methylmorpholino)-3-(1H-pyrazol-5-yl)isothiazolo[4,5-b]pyridin-7-yl)cyclohexan-1-ol], the IC50 with LoVo (CCL-229) cells amounted to 0.002 µM.

`Cc1cc(-c2nsc3c(Cl)cc(N4CCOC[C@H]4C)nc23)[nH]n1` [Example 104, (R)-4-(7-chloro-3-(3-methyl-1H-pyrazol-5-yl)isothiazolo[4,5-b]pyridin-5-yl)-3-methylmorpholine] displayed an IC50 in the assay with LoVo (CCL-229) cells of 0.154 µM.

With `Cc1cc(-c2nsc3c(-c4cccnc4C(F)(F)F)cc(N4CCOC[C@H]4C)nc23)[nH]n1` [Example 96, (3R)-3-methyl-4-[3-(3-methyl-1H-pyrazol-5-yl)-7-[2-(trifluoromethyl)pyridin-3-yl]-[1,2]thiazolo[4,5-b]pyridin-5-yl]morpholine], in the assay on LoVo (CCL-229) cells, the IC50 was 0.0327 µM.

Consider `Cc1cc(-c2nsc3c(C4(O)CCCCC4)cc(N4CCOC[C@H]4C)nc23)[nH]n1` [Example 86, (R)-1-(3-(3-methyl-1H-pyrazol-5-yl)-5-(3-methylmorpholino)isothiazolo[4,5-b]pyridin-7-yl)cyclohexan-1-ol], for which, in the assay with LoVo (CCL-229) cells, the midpoint of inhibition, the IC50, lay at 0.009 µM.

With `Cc1cc(-c2ncc3c(C(C)(C)S(C)(=O)=O)cc(N4CCOC[C@H]4C)nn23)[nH]n1` [Example 42, (R)-3-methyl-4-(7-(3-methyl-1H-pyrazol-5-yl)-4-(2-(methylsulfonyl)propan-2-yl)imidazo[1,5-b]pyridazin-2-yl)morpholine], in the assay with LoVo (CCL-229) cells, the IC50 came to 0.0793 µM.

Molecule `Cc1cc(-c2cnc3c(-c4ccnn4C)cc(N4CCOC[C@H]4C)nn23)[nH]n1` [Example 23, (R)-3-methyl-4-(8-(1-methyl-1H-pyrazol-5-yl)-3-(3-methyl-1H-pyrazol-5-yl)imidazo[1,2-b]pyridazin-6-yl)morpholine] gave an IC50 in the assay on LoVo (CCL-229) cells of 0.446 µM.

Molecule `COC(=O)C1(c2cc(N3CCOC[C@H]3C)nc3c(-c4ccn[nH]4)nsc23)CCCC1` [Example 92] displayed an IC50 in the assay on LoVo (CCL-229) cells of 0.094 µM.

For the molecule `C[C@@H]1COCCN1c1cc(C(C)(C)CO)c2snc(-c3ccn[nH]3)c2n1` [Example 100, (R)-2-methyl-2-(5-(3-methylmorpholino)-3-(1H-pyrazol-5-yl)isothiazolo[4,5-b]pyridin-7-yl)propan-1-ol], in the assay on LoVo (CCL-229) cells, half-maximal inhibition (IC50) required 0.016 µM.

In the assay with LoVo (CCL-229) cells, `C[C@@H]1COCCN1c1cc(C2(C#N)CC2)c2cnc(-c3ccn[nH]3)n2n1` [Example 44, (R)-1-(2-(3-methylmorpholino)-7-(1H-pyrazol-5-yl)imidazo[1,5-b]pyridazin-4-yl)cyclopropane-1-carbonitrile] had an IC50 of 0.0439 µM.

As for `C[C@@H]1COCCN1c1cc(C2(S(C)(=O)=O)CC2)nc(Nc2cc(Cl)n[nH]2)n1` [Example 77, (R)—N-(3-chloro-1H-pyrazol-5-yl)-4-(3-methylmorpholino)-6-(1-(methylsulfonyl)cyclopropyl)pyrimidin-2-amine], in the assay on LoVo (CCL-229) cells, 1 µM corresponded to half-maximal inhibition (IC50).
